Reference: patent publication US20210369710A1, “MODULATORS OF MYC FAMILY PROTO-ONCOGENE PROTEIN” (Nalo Therapeutics, priority 2019, published 2021)

What was measured:
MycN Protein = molecular target: T1, MycN Protein (Homo sapiens, UniProt P04198); assay: Degradation of MycN protein, Western blot band density in cells; format: cell-based; conditions: HL-60 or SKNBE2 cells; 6 uL of compound (1 mM) added to 3 mL cells; 6 hours; Western blot band density (ImageJ)
T1 construct: endogenous in cells; host or cells: HL-60 or SKNBE2
T1 sequence (P04198 1-464): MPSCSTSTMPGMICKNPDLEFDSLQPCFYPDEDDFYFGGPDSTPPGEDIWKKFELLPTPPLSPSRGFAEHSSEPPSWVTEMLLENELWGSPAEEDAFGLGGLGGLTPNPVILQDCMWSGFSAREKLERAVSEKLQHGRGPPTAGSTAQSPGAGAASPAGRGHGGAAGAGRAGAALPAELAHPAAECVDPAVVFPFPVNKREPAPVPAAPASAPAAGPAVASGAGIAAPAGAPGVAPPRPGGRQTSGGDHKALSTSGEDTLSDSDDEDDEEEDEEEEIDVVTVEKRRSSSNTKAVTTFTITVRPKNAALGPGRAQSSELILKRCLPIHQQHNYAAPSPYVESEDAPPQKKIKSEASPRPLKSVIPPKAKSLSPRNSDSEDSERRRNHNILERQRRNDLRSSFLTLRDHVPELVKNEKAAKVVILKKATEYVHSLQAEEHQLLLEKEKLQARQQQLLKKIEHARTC
Experimental: (§1) In a T150 flask was plated either 2×10^6 of HL-60 (human leukemia cell line) or SKNBE2 (neuroblastoma cell line) cells in a total of 30 mL containing Roswell Park Memorial Institute (RPMI) 1640 Medium (Thermo Fisher, Cat. #11875-085), 10% Fetal Bovine Serum (FBS, Thermo Fisher: Cat. #10437-028), 1% Penicillin/streptomycin (Thermo Fisher: Cat. #10378016), and 1% Amophotericin B (Thermo Fisher, Cat. #15290026). The cells were split every 72 hours by reseeding the HL-60 or SKNBE2 cells, and the passage number was noted. It is noteworthy that cell cultures that were above 40 passages were not used, and most experiments were done with cells of less than 30 passages.
(§2) In a 6-well cell culture plate, a total of 3 mL of either 1×10^6 cells/mL of HL-60 or SKNBE2 cells were seeded, resulting in a total of 3×10^6 cells per well. To each well containing 3 mL of either HL-60 or SKNBE2 cell line was added 6 uL of MycN modulating compound (1 mM) and the resulting plate was shaken from left to right, and not swirled. After 6 hours, the cells were placed in a 15 mL falcon tube and spun at 500 Gs at 4° C. in a swinging bucket centrifuge. The medium was then carefully removed without disturbing the pellet. The pellet was then washed with 3 mLs of chilled phosphate buffered saline (PBS) and subjected to the spin cycle. PBS was then removed and the pellet was lysed in 200 uL of radioimmunoprecipitation (RIPA) lysis buffer (Thermo Fisher: Cat. #899000) that is supplemented with protease and phosphatase inhibitors (Thermo Fisher: Cat. #A32959). The cell lysate was then subjected to spinning in a centrifuge for 10 minutes at 13000G at 4° C. The supernatant was then carefully transferred to a fresh eppendorf tube without disturbing the pellet (˜180 uL). The protein concentration of the cell lysate was then determined by using a bicinchoninic acid (BCA assay) according to manufacturer's protocol (Thermo Fisher: Cat. #23227).
(§3) Cell lysate, approximately 25 ug-30 ug, was loaded per well in a 4-20% polyacrylamide gel (Biorad. Cat. #5671094). After running the dye front off of the gel, the gel was transferred to a nitrocellulose membrane (Biorad: Cat. #1704159) using the transblot turbo system (Biorad: Cat. #1704150) according to manufacturer's protocol. After transferring for 30 minutes, the membrane was blocked with 5% BSA for 1 hour at room temperature. The BSA was then washed off and the primary antibody of choice (1:500) was added, and the membrane was incubated with the primary antibody at 4° C. for overnight. The next morning, the primary antibody was removed and the membrane was washed with 1×-TBST for 10 minutes and repeated three more times. Following the last wash, a secondary antibody (Molecular Devices. Cat. #R8209 or R8208) was added at 1:5000 dilution and incubated for 1 hour at room temperature. Following the incubation with the secondary antibody, the membrane was washed with 1×-TBST for 10 minutes and repeated three more times. Following the last wash, the membrane was washed with de-ionized water twice and dried for at least two hours. Once the membrane is completely dry, the Molecular Devices Spectra Max western system was used to observe the bands. The western image was saved and the band density was measured with ImageJ software.

MycC Protein = molecular target: T2, MycC Protein (Homo sapiens, UniProt P01106); assay: Degradation of MycC protein, Western blot band density in cells; format: cell-based; conditions: HL-60 or SKNBE2 cells; 6 uL of compound (1 mM) added to 3 mL cells; 6 hours; Western blot band density (ImageJ)
T2 construct: endogenous in cells; host or cells: HL-60 or SKNBE2
T2 sequence (P01106 whole entry): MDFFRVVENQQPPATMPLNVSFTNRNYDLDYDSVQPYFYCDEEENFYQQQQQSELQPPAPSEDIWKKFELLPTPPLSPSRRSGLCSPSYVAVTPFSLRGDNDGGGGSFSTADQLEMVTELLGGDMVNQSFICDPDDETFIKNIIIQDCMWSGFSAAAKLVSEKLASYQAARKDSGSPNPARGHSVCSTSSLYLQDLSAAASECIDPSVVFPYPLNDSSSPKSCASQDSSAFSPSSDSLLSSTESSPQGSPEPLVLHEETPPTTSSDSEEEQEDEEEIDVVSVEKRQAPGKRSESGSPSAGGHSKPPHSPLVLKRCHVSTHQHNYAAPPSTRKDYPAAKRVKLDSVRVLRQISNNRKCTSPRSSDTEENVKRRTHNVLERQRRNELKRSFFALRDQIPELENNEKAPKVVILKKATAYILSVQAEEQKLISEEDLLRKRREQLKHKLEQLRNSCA
Experimental: as §1, §2, §3

CS(=O)(=O)N1CC(NC(=O)N[C@H]2CC[C@H](Nc3nccc(Nc4cc(C5CCCC5)[nH]n4)n3)CC2)C1 [Compound 56]
Dmax at 2 µM (MycN Protein): < 20%
Dmax at 2 µM (MycC Protein): 20 to 49%

CN(C(=O)NC1Cc2ccc(C#N)cc2C1)[C@H]1CC[C@H](N(C)c2nccc(Nc3cc(C4CCCC4)[nH]n3)n2)CC1 (stereo partly drawn) [Compound 143, 3-(5-cyano-2,3-dihydro-1H-inden-2-yl)-1-((1R,4R)-4-((4-((5-cyclopentyl-1H-pyrazol-3-yl)amino)pyrimidin-2-yl)(methyl)amino)cyclohexyl)-1-methylurea]
Dmax at 2 µM (MycN Protein): 50 to 79%
Dmax at 2 µM (MycC Protein): 50 to 79%

Cc1cc(Nc2ccnc(NC3CCC(N)CC3)n2)n[nH]1 [Compound 6, N^2-((1R,4R)-4-aminocyclohexyl)-N^4-(5-methyl-1H-pyrazol-3-yl)pyrimidine-2,4-diamine]
% Degradation of MycN (MycN Protein): * (*: degradation <20%)
% Degradation of MycC (MycC Protein): ** (**: degradation 20-49%)

CCc1cc(Nc2ccnc(N[C@H]3CC[C@H](NC(=O)NC4Cc5ccc(C#N)cc5C4)CC3)n2)n[nH]1 (stereo partly drawn) [Compound 8, 1-(5-cyano-2,3-dihydro-1H-inden-2-yl)-3-((1R,4R)-4-((4-((5-ethyl-1H-pyrazol-3-yl)amino)pyrimidin-2-yl)amino)cyclohexyl)urea]
Dmax at 2 µM (MycN Protein): < 20%
Dmax at 2 µM (MycC Protein): 20 to 49%

CN(c1nccc(Nc2cc(C3CCC3)[nH]n2)n1)[C@H]1CC[C@H](NC(=O)NC2Cc3ccc(C#N)cc3C2)CC1 (stereo partly drawn) [Compound 144, 1-(5-cyano-2,3-dihydro-1H-inden-2-yl)-3-((1R,4R)-4-((4-((5-cyclobutyl-1H-pyrazol-3-yl)amino)pyrimidin-2-yl)(methyl)amino)cyclohexyl)urea]
Dmax at 2 µM (MycN Protein): 50 to 79%
Dmax at 2 µM (MycC Protein): 80 to 100%

O=C(NC1CCCS(=O)(=O)C1)N[C@H]1CC[C@H](Nc2nccc(Nc3cc(C4CCCC4)[nH]n3)n2)CC1 (stereo partly drawn) [Compound 25]
Dmax at 2 µM (MycN Protein): < 20%
Dmax at 2 µM (MycC Protein): < 20%

N=C(NC1COC1)c1ccc2c(c1)CC(NC(=O)N[C@H]1CC[C@H](Nc3nccc(Nc4cc(C5CCCC5)[nH]n4)n3)CC1)C2 (stereo partly drawn) [Compound 99]
Dmax at 2 µM (MycN Protein): < 20%

Cc1cc(Nc2ccnc(N[C@H]3CC[C@H](NC(=O)NC4CCN(C(=O)C5CC5)CC4)CC3)n2)n[nH]1 [Compound 103, 1-(1-(cyclopropanecarbonyl)piperidin-4-yl)-3-((1R,4R)-4-((4-((5-methyl-1H-pyrazol-3-yl)amino)pyrimidin-2-yl)amino)cyclohexyl)urea]
Dmax at 2 µM (MycN Protein): < 20%
Dmax at 2 µM (MycC Protein): < 20%

N#Cc1ccc2c(c1)CC(NC(=O)N[C@H]1CC[C@H](Nc3nccc(Nc4cc(C5CCCC5)[nH]n4)n3)CC1)C2 (stereo partly drawn) [Compound 11 (Fraction 2), 1-(5-cyano-2,3-dihydro-1H-inden-2-yl)-3-((1R,4R)-4-((4-((5-cyclopentyl-1H-pyrazol-3-yl)amino)pyrimidin-2-yl)amino)cyclohexyl)urea]
% Degradation of MycN (MycN Protein): *** (***: degradation 50-79%)
% Degradation of MycC (MycC Protein): **** (****: degradation 80-100%)

CC1(NC(=O)N[C@H]2CC[C@H](Nc3nccc(Nc4cc(C5CCCC5)[nH]n4)n3)CC2)CCOCC1 [Compound 38, 1-((1R,4R)-4-((4-((5-cyclopentyl-1H-pyrazol-3-yl)amino)pyrimidin-2-yl)amino)cyclohexyl)-3-(4-methyltetrahydro-2H-pyran-4-yl)urea]
Dmax at 2 µM (MycN Protein): 20 to 49%
Dmax at 2 µM (MycC Protein): 50 to 79%

O=C(NC1CCC(Nc2nccc(Nc3cc(C4CCCC4)[nH]n3)n2)CC1)NC1CC2(C1)CN(C1CC1)C2 [Compound 77, 1-((1R,4R)-4-((4-((5-cyclopentyl-1H-pyrazol-3-yl)amino)pyrimidin-2-yl)amino)cyclohexyl)-3-(2-cyclopropyl-2-azaspiro[3.3]heptan-6-yl)urea]
Dmax at 2 µM (MycN Protein): < 20%
Dmax at 2 µM (MycC Protein): 20 to 49%

CN(c1nccc(Nc2cc(C3CCCC3)[nH]n2)n1)C1CCC(NC(=O)N[C@H]2CCC[C@@H](C(F)(F)F)C2)CC1 (stereo partly drawn) [Compound 121 (Fraction 2), 1-((1R,4S)-4-((4-((5-cyclopentyl-1H-pyrazol-3-yl)amino)pyrimidin-2-yl)(methyl)amino)cyclohexyl)-3-((1S,3R)-3-(trifluoromethyl)cyclohexyl)urea]
% Degradation of MycN (MycN Protein): *** (***: degradation 50-79%)
% Degradation of MycC (MycC Protein): ** (**: degradation 20-49%)

CN1CC(NCc2ccc3c(c2)CC(NC(=O)N[C@H]2CC[C@H](Nc4nccc(Nc5cc(C6CCCC6)[nH]n5)n4)CC2)C3)C1 (stereo partly drawn) [Compound 107]
Dmax at 2 µM (MycN Protein): < 20%
Dmax at 2 µM (MycC Protein): 50 to 79%

CS(=O)(=O)[C@H]1CCCC(NC(=O)N[C@H]2CC[C@H](Nc3nccc(Nc4cc(C5CCCC5)[nH]n4)n3)CC2)C1 (stereo partly drawn) [Compound 26]
Dmax at 2 µM (MycN Protein): 20 to 49%
Dmax at 2 µM (MycC Protein): < 20%

O=C(NC1Cc2ccc(C3=NCC(O)CN3)cc2C1)N[C@H]1CC[C@H](Nc2nccc(Nc3cc(C4CCCC4)[nH]n3)n2)CC1 (stereo partly drawn) [Compound 100]
Dmax at 2 µM (MycN Protein): < 20%

O=C(NC12CCN(CC1)CC2)N[C@H]1CC[C@H](Nc2nccc(Nc3cc(C4CCCC4)[nH]n3)n2)CC1 [Compound 68]
Dmax at 2 µM (MycN Protein): 20 to 49%

O=C(Nc1cccc(C(F)(F)F)c1)N[C@@H]1CC[C@@H](Nc2nccc(Nc3cc(C4CCCC4)[nH]n3)n2)C1 [Compound 82]
Dmax at 2 µM (MycN Protein): 20 to 49%

CN1CCC(NC(=O)N[C@H]2CC[C@H](Nc3nccc(Nc4cc(C5CCCC5)[nH]n4)n3)CC2)CC1 [Compound 97, 1-((1R,4R)-4-((4-((5-cyclopentyl-1H-pyrazol-3-yl)amino)pyrimidin-2-yl)amino)cyclohexyl)-3-(1-methylpiperidin-4-yl)urea]
Dmax at 2 µM (MycN Protein): 20 to 49%

CN(c1nccc(Nc2cc(C3CC3)[nH]n2)n1)[C@H]1CC[C@H](NC(=O)NC2Cc3cc(F)c(F)cc3C2)CC1 [Compound 151, 1-((1R,4R)-4-((4-((5-cyclopropyl-1H-pyrazol-3-yl)amino)pyrimidin-2-yl)(methyl)amino)cyclohexyl)-3-(5,6-difluoro-2,3-dihydro-1H-inden-2-yl)urea]
Dmax at 2 µM (MycN Protein): 50 to 79%

O=C(NC1CC2CCC(C1)N2C1CC1)N[C@H]1CC[C@H](Nc2nccc(Nc3cc(C4CCCC4)[nH]n3)n2)CC1 (stereo partly drawn) [Compound 61, 1-((1R,4R)-4-((4-((5-cyclopentyl-1H-pyrazol-3-yl)amino)pyrimidin-2-yl)amino)cyclohexyl)-3-(8-cyclopropyl-8-azabicyclo[3.2.1]octan-3-yl)urea]
Dmax at 2 µM (MycN Protein): < 20%

CN(c1nccc(Nc2cc(C3CC3)[nH]n2)n1)[C@H]1CC[C@H](NC(=O)Nc2cccc(C(F)(F)F)c2)CC1 [Compound 147, 1-((1R,4R)-4-((4-((5-cyclopropyl-1H-pyrazol-3-yl)amino)pyrimidin-2-yl)(methyl)amino)cyclohexyl)-3-(3-(trifluoromethyl)phenyl)urea]
Dmax at 2 µM (MycN Protein): 80 to 100%

CN(C)C(=N)c1ccc2c(c1)CC(NC(=O)N[C@H]1CC[C@H](Nc3nccc(Nc4cc(C5CCCC5)[nH]n4)n3)CC1)C2 (stereo partly drawn) [Compound 98]
Dmax at 2 µM (MycN Protein): < 20%

CN(c1nccc(Nc2cc(C3CCCC3)[nH]n2)n1)[C@H]1CC[C@H](NC(=O)Nc2cccc(C(F)(F)F)c2)CC1 [Compound 146, 1-((1R,4R)-4-((4-((5-cyclopentyl-1H-pyrazol-3-yl)amino)pyrimidin-2-yl)(methyl)amino)cyclohexyl)-3-(3-(trifluoromethyl)phenyl)urea]
Dmax at 2 µM (MycN Protein): 50 to 79%
